Activity calls are given as the source filed them. No cut-off for these calls is given here.
Biological target: Sigma non-opioid intracellular receptor 1 (Cavia porcellus, UniProt Q60492)
Test: Displacement of [3H]-(+)-pentazocine from guinea pig brain membrane sigma 1 receptor assessed as inhibition constant measured after 120 mins by scintillation counting method
Assay type: cell membranes
Conditions: not given

Sequence of Sigma non-opioid intracellular receptor 1 (Q60492 whole entry): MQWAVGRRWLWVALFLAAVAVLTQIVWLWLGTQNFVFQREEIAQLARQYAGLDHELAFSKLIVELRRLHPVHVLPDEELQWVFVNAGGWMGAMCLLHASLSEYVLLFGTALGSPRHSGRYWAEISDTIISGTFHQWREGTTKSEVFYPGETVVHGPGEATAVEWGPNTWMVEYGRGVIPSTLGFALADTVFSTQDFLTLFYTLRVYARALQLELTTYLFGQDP

| Ki | Structure (SMILES) |
| --- | --- |
| 114 nM | C[C@@H]1CC[C@@H]2[C@@H](C1)OC(C)(C)O[C@]2(C)CN1CCC(Cc2ccccc2)CC1 |
| 18 nM | C[C@@H]1CC[C@@H]([C@](C)(O)CN2CCC(Cc3ccccc3)CC2)[C@@H](O)C1 |
| 7 nM | C[C@@H]1CC[C@@H]([C@@](C)(O)CNCCCCc2ccccc2)[C@@H](O)C1 |
| 3.5 nM | C[C@@H]1CC[C@@H]2[C@H](C1)OCO[C@]2(C)CN1CCC(Cc2ccccc2)CC1 |
| 1 nM | C[C@@H]1CC[C@@H]([C@@](C)(O)CN2CCC(Cc3ccccc3)CC2)[C@@H](O)C1 |
| 8.2 nM | C[C@@H]1CC[C@@H]([C@@](C)(O)CNCCCCc2ccccc2)[C@H](O)C1 |
| 8.6 nM | C[C@@H]1CC[C@@H]2[C@H](C1)OCO[C@@]2(C)CNCCCCc1ccccc1 |
| 725 nM | C[C@@H]1CC[C@@H]2[C@H](C1)OC1CN(CCCCc3ccccc3)C[C@]2(C)O1 (single isomer, unassigned) |
| 2.8 nM | C[C@@H]1CC[C@@H]([C@](C)(O)CN2CCC(Cc3ccccc3)CC2)[C@H](O)C1 |
| 2.9 nM | COc1ccc(CC2CCN(C[C@](C)(O)[C@@H]3CC[C@@H](C)C[C@H]3O)CC2)cc1 |
| 449 nM | CN1CCN(CCc2ccc(Cl)c(Cl)c2)CC1 |
| > 1000 nM | Cc1cc(OCCN2CCOCC2)nn1-c1ccc2ccccc2c1 |

Biological target: T1, Sigma intracellular receptor 2 (Rattus norvegicus, UniProt Q5U3Y7)
T1 sequence (Q5U3Y7 whole entry): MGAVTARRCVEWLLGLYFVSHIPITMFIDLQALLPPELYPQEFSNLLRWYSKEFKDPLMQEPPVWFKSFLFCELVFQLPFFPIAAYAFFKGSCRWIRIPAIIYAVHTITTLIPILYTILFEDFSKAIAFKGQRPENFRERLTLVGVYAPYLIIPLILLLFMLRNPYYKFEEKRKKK
Test: Displacement of [3H]di-o-tolylguanidine from rat liver membrane sigma 2 receptor assessed as inhibition constant measured after 120 mins by scintillation counting method
Assay type: cell membranes
Conditions: not given

| Ki | Structure (SMILES) |
| --- | --- |
| 880 nM | C[C@@H]1CC[C@@H]2[C@@H](C1)OC(C)(C)O[C@]2(C)CN1CCC(Cc2ccccc2)CC1 |
| 216 nM | C[C@@H]1CC[C@@H]([C@](C)(O)CN2CCC(Cc3ccccc3)CC2)[C@@H](O)C1 |
| 424 nM | C[C@@H]1CC[C@@H]([C@@](C)(O)CNCCCCc2ccccc2)[C@@H](O)C1 |
| 123 nM | C[C@@H]1CC[C@@H]2[C@H](C1)OCO[C@]2(C)CN1CCC(Cc2ccccc2)CC1 |
| 172 nM | C[C@@H]1CC[C@@H]([C@@](C)(O)CN2CCC(Cc3ccccc3)CC2)[C@@H](O)C1 |
| 850 nM | C[C@@H]1CC[C@@H]([C@@](C)(O)CNCCCCc2ccccc2)[C@H](O)C1 |
| 525 nM | C[C@@H]1CC[C@@H]2[C@H](C1)OCO[C@@]2(C)CNCCCCc1ccccc1 |
| 194 nM | C[C@@H]1CC[C@@H]([C@](C)(O)CN2CCC(Cc3ccccc3)CC2)[C@H](O)C1 |
| 75 nM | COc1ccc(CC2CCN(C[C@](C)(O)[C@@H]3CC[C@@H](C)C[C@H]3O)CC2)cc1 |

Biological target: Glutamate receptor ionotropic, NMDA 2B (Mus musculus, UniProt P35438+Q01097)
Test: Displacement of [3H]ifenprodil from GluN2B in mouse LTK cells assessed as inhibition constant measured after 120 mins by scintillation counting method
Assay type: cell-based
Conditions: not given

Sequence of Glutamate receptor ionotropic, NMDA 2B (Q01097 whole entry, one chain of several): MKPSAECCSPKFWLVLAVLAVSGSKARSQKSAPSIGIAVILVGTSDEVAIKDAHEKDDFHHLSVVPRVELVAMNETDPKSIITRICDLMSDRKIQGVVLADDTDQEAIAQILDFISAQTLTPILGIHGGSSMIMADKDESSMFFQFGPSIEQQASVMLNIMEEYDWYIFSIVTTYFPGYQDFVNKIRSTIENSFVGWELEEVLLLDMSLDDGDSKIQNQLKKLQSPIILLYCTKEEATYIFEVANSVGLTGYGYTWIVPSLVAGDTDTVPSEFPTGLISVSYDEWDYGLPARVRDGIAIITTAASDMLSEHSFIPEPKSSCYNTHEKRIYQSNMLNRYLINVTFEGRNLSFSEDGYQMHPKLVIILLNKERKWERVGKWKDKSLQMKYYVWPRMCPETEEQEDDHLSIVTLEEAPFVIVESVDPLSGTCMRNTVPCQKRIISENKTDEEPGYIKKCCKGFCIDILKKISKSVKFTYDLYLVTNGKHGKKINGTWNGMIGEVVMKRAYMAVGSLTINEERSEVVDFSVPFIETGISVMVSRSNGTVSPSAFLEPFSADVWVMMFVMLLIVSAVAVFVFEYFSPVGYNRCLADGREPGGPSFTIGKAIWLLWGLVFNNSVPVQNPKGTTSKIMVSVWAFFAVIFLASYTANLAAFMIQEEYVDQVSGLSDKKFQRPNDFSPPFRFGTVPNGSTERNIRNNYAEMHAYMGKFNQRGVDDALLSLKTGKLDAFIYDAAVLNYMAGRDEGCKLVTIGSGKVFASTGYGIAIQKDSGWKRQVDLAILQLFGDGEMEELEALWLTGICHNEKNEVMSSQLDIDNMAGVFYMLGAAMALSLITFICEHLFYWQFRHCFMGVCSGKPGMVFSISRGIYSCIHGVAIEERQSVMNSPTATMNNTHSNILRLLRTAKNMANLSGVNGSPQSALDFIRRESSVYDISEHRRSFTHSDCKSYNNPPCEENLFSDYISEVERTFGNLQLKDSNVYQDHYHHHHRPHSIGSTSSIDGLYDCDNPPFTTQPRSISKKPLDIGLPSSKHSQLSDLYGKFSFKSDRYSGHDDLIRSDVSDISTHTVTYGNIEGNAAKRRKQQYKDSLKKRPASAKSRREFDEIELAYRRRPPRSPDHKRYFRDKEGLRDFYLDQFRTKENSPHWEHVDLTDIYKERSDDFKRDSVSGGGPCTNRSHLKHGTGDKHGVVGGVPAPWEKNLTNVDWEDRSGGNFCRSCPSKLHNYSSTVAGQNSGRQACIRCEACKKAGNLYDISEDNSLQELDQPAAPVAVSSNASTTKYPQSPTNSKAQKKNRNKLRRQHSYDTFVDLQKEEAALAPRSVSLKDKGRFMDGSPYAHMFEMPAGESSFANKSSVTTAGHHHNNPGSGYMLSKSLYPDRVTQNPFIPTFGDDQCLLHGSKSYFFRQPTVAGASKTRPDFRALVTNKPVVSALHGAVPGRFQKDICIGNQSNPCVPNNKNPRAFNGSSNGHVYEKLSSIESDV

| Ki | Structure (SMILES) |
| --- | --- |
| 423 nM | C[C@@H]1CC[C@@H]2[C@@H](C1)OC(C)(C)O[C@]2(C)CN1CCC(Cc2ccccc2)CC1 |
| 363 nM | C[C@@H]1CC[C@@H]([C@](C)(O)CN2CCC(Cc3ccccc3)CC2)[C@@H](O)C1 |
| 1060 nM | C[C@@H]1CC[C@@H]([C@@](C)(O)CNCCCCc2ccccc2)[C@@H](O)C1 |
| 267 nM | C[C@@H]1CC[C@@H]2[C@H](C1)OCO[C@]2(C)CN1CCC(Cc2ccccc2)CC1 |
| 125 nM | C[C@@H]1CC[C@@H]([C@@](C)(O)CN2CCC(Cc3ccccc3)CC2)[C@@H](O)C1 |
| 1300 nM | C[C@@H]1CC[C@@H]([C@@](C)(O)CNCCCCc2ccccc2)[C@H](O)C1 |
| 313 nM | C[C@@H]1CC[C@@H]2[C@H](C1)OCO[C@@]2(C)CNCCCCc1ccccc1 |
| 92 nM | C[C@@H]1CC[C@@H]([C@](C)(O)CN2CCC(Cc3ccccc3)CC2)[C@H](O)C1 |
| 45 nM | COc1ccc(CC2CCN(C[C@](C)(O)[C@@H]3CC[C@@H](C)C[C@H]3O)CC2)cc1 |
| 49 nM | CN1CCN(CCc2ccc(Cl)c(Cl)c2)CC1 |
| > 58 nM | Cc1cc(OCCN2CCOCC2)nn1-c1ccc2ccccc2c1 |

System: not listed separately
Test: Lipophilicity, logD of the compound at pH 7.4 by LC-MS analysis
Assay type: physicochemical
Conditions: buffer

| logD | Structure (SMILES) |
| --- | --- |
| 1.84 | C[C@@H]1CC[C@@H]([C@@](C)(O)CNCCCCc2ccccc2)[C@H](O)C1 |

System: not listed separately
Test: Plasma protein binding in human by HPAC method
Assay type: ADME, cell-free
Conditions: read-out: PPB (converted)

| fraction unbound | Structure (SMILES) |
| --- | --- |
| 0.073 | C[C@@H]1CC[C@@H]([C@@](C)(O)CNCCCCc2ccccc2)[C@H](O)C1 |

System: Mus musculus
Test: Antiallodynic activity in capsaicin-induced mechanical allodynia CD1 mouse model assessed as increase in paw withdrawal latency at 32 mg/kg, sc pretreated for 30 mins followed by capsaicin addition and measured after 15 mins
Assay type: functional, organism-based
Conditions: time 45.0 min

| Structure (SMILES) | Activity |
| --- | --- |
| Cc1cc(OCCN2CCOCC2)nn1-c1ccc2ccccc2c1 | Active |

System: Mus musculus
Test: Antiallodynic activity in capsaicin-induced allodynia CD1 mouse model at 16 mg/kg, ip measured after 15 mins relative to control
Assay type: functional
Conditions: 0.25 h

| Structure (SMILES) | Activity |
| --- | --- |
| Cc1cc(OCCN2CCOCC2)nn1-c1ccc2ccccc2c1 | 43% |

System: Mus musculus
Test: Antiallodynic activity in ip dosed capsaicin-induced allodynia CD1 mouse model measured after 15 mins
Assay type: functional
Conditions: CD1, 0.25 h

| Structure (SMILES) | ED50 |
| --- | --- |
| Cc1cc(OCCN2CCOCC2)nn1-c1ccc2ccccc2c1 | 26.3 mg/kg |

Biological target: T2, Sigma intracellular receptor 2 (Rattus norvegicus) (UniProt Q5U3Y7)
T2 sequence (whole entry): T1 sequence (Q5U3Y7 whole entry)
Test: Displacement of [3H]di-o-tolylguanidine from rat liver membrane sigma 2 receptor at 1 uM measured after 120 mins by scintillation counting method relative to control
Assay type: cell membranes
Conditions: not given

| inhibition | Structure (SMILES) |
| --- | --- |
| 0% | C[C@@H]1CC[C@@H]2[C@H](C1)OC1CN(CCCCc3ccccc3)C[C@]2(C)O1 (single isomer, unassigned) |

Biological target: Glutamate receptor ionotropic, NMDA 2B (Mus musculus) (UniProt Q01097)
Test: Displacement of [3H]ifenprodil from GluN2B in mouse LTK cells at 1 uM measured after 120 mins by scintillation counting method relative to control
Assay type: cell-based
Conditions: not given

Sequence of Glutamate receptor ionotropic, NMDA 2B (Mus musculus) (Q01097 whole entry): as the sequence (Q01097 whole entry, one chain of several) above

| inhibition | Structure (SMILES) |
| --- | --- |
| 0% | C[C@@H]1CC[C@@H]2[C@H](C1)OC1CN(CCCCc3ccccc3)C[C@]2(C)O1 (single isomer, unassigned) |
